In this experiment the target is T1, androgen receptor (Rattus norvegicus, UniProt P15207).
T1 construct: on receptors in cystosol from animal target organs; from tissue; host or cells: prostate cytosol of castrated rat
T1 sequence (P15207 1-902): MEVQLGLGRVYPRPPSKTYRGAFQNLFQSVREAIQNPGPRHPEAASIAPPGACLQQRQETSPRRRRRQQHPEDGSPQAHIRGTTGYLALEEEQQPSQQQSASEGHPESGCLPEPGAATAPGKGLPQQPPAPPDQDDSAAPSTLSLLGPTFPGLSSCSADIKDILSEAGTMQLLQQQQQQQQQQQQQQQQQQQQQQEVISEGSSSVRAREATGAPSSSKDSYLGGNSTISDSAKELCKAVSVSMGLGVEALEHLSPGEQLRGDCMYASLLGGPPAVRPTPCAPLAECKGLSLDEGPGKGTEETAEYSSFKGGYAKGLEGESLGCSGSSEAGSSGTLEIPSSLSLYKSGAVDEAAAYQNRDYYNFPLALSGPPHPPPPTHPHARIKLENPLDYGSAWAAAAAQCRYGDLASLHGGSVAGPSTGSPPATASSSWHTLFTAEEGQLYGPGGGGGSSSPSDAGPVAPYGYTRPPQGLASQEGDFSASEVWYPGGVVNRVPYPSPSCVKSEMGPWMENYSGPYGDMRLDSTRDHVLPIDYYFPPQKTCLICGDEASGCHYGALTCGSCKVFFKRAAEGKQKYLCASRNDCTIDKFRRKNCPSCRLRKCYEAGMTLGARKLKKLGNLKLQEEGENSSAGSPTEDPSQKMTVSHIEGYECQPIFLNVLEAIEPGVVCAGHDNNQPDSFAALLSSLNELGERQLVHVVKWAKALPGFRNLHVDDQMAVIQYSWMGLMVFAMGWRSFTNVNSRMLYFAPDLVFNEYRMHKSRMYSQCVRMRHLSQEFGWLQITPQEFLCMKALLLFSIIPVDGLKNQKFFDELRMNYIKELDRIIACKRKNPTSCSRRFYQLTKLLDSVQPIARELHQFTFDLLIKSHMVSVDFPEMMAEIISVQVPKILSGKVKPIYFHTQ
As to the kind of experiment: Measurement of the androgen receptor binding affinity (competitive binding with 3H-Metribolone tracer in prostate cytosol). The note with it: prostate cytosol of the castrated rat; tracer 3H-Metribolone; reference substance DHT = 100%; 0-4° C., 18 hours. The method, then: Measurement of the androgen receptor binding affinity:
The receptor binding affinity was determined by competitive binding of a specifically binding 3H-labeled hormone (tracer) and the compound to be tested on receptors in cystosol from animal target organs. In this case, receptor saturation and reaction equilibrium were desired.
The tracer and increasing concentrations of the compound to be tested (competitor) were co-incubated at 0-4° C. over 18 hours with the receptor-containing cytosol fraction. After separation of the unbonded tracer with carbon-dextran suspension, the receptor-bonded tracer portion was measured for each concentration and the IC50 was determined from the concentration series.
The following incubation conditions were selected:
Prostate cytosol of the castrated rat; prostates stored at −30° C.;

This note sets out measurements from patent publication US20050234111A1, “D-homo-17-chlor-16(17)-ene steroids” (priority 2004, published 2005).

Consider `CC1CC2=CC(=O)CCC2(C)C2CCC3(C)C(O)C(Cl)=CCC3C12` (stereo not drawn) [Compound 2, 17-Chloro-17aβ-hydroxy-7α-methyl-17a-homoandrosta-4,16-dien-3-one], for which the “RBA % (relative molar binding affinity)” value turned out to be 46%. For `C[C@]12CC[C@H]3[C@@H](CCC4=C(C(F)(F)F)C(=O)CC[C@@]43C)[C@@H]1CC=C(Cl)[C@@H]2O` [Compound 9, 17-Chloro-17aβ-hydroxy-4-trifluoromethyl-17a-homoandrosta-4,16-dien-3-one], the “RBA % (relative molar binding affinity)” value was determined as 51%. The figure for `C[C@]12CC[C@H]3[C@@H](CCC4=CC(=O)CC[C@@H]43)[C@@H]1CC=C(Cl)[C@@H]2O` [Compound 17, 17-Chloro-17aβ-hydroxy-17a-homo-estra-4,16-dien-3-one] is 80%. With `CC1CC2=CC(=O)CCC2C2CCC3(C)C(O)C(Cl)=CCC3C12` (stereo not drawn) [Compound 18, 17-Chloro-17aβ-hydroxy-7α-methyl-17a-homo-estra-4,16-dien-3-one] the figure was 105%. For `CC12CCC3C4CCC(=O)C(O)=C4CCC3C1CC=C(Cl)C2O` (centres unmarked) [Compound 21, 17-Chloro-4,17aβ-dihydroxy-17a-homo-estra-4,16-dien-3-one], the “RBA % (relative molar binding affinity)” value is 70%.
